Laboratory results published in a melting point compilation (Tetko et al.; mined from patent text by program, amines drawn as free bases though some values may be those of a salt).

Row | melting point [°C] | Compound
1 | 167 to 169 | CC(C)(C)NCC(O)c1cc(Cl)c(NC(=O)NC(C)(C)C)c(Cl)c1 (stereo not given)
2 | 157 to 158 | COc1cc(OC)c(NC2=Nc3ccccc3CS2)cc1Cl
3 | 139 | CC(C)Nc1cccnc1N1CCN(C(=O)c2ccc(C(=O)N3CCOCC3)cc2)CC1
4 | 200 to 203 | CN1CCN(C2=Nc3cc(Cl)ccc3Nc3nn(C)nc32)CC1
5 | 46 to 48 | CCCCCCCCCCCCCCCCCCOc1ccc(C(=O)C(=O)OCC)cc1
6 | 74 to 76 | COc1ccc(Nc2nc(Cl)cc(NC3CCCCCC3)n2)cc1Cl
7 | 188 to 189 | COc1ccc2nc(-c3cccc(C)c3)c(-c3ccnc(NC4CCCCC4)c3)n2n1
8 | 235 to 236 | COc1cc(NC(C)=O)c(Cl)cc1-c1nn(-c2ccc(C(F)(F)F)cc2)c(=O)o1
9 | 252 to 253 | COc1cc2nc(N3CCN(C(=O)C=Cc4ccoc4)CC3)nc(N)c2cc1OC
10 | 75.9 to 77.6 | Nc1ccc(OC(F)(F)F)cc1CO
11 | 94 to 97 | CC(C)(C)c1ccc(OCC(O)CN2CCC3(CC2)CSC2=C(O3)c3cc(Cl)ccc3C(=O)C2=O)cc1 (stereo not given)
12 | 70 to 75 | CC(=O)OCC1OC(n2cc(C#N)c3c(Cl)nc(Cl)nc32)C(OC(C)=O)C1OC(C)=O (stereo not given)
13 | 205 to 206 | COC(=O)C1=C(C)NC(C)=C(c2nc(CCl)ns2)C1c1cccc([N+](=O)[O-])c1 (stereo not given)
14 | 135 to 136 | COc1ccc(CCNC(=O)CCC2(c3ccc(OC)c(OC)c3)SCCCS2)cc1OC
15 | > 300 | O=C(O)c1ccn(C2=CC3=C(CC2)CCc2[nH]c(=O)c(=O)n(O)c23)c1
16 | 124 to 125 | CC1(C)C(=O)Nc2cc(C=O)ccc2N(CC2CC2)C1=O
17 | 218 | Cc1cc(-c2ccc(C(F)(F)F)cc2)nc(-c2ccnc(-c3cccc(S(N)(=O)=O)c3)c2)n1
18 | 204 to 205 | CCn1cc(C(=O)C(=O)O)c2ccc(-c3ccc(OC(F)(F)F)cc3)cc21
19 | 194 to 196 | COc1ccc(C2CCN(C(=O)Nc3ccc4cc(CN5CCCC5)ccc4c3)CC2)cc1
20 | 182 | O=S1(=O)c2ccccc2C(c2ccccc2)N1CCCN1CCN(c2ccc(F)cc2)CC1 (racemic)
21 | 163 to 165 | N#CNC(=NC1CCN(Cc2ccccc2)CC1)N1CCOCC1
22 | 107 | CCCCCC1CCC(C2CCC(CC(=O)CC)CC2)CC1 (stereo not given)
23 | 101 to 102 | COc1cccc(CC(=O)O)c1OCCCc1cc(C(C)C)nn1Cc1ccc(Cl)cc1Cl

Row | melting point [°C] | Compound
24 | 125 to 126 | CS(=O)c1nnc(-c2ccccc2NC(=O)c2cccc(C(F)(F)F)c2)s1 (stereo not given)
25 | 203 to 206 | Cc1cc2c(cc1C#Cc1ccc(C(=O)O)cc1)C(C)(C)CCC2
26 | 111 to 113 | COc1nc(OC)c(C(C)C)c(C(=O)c2cc(C)cc(C=O)c2)n1
27 | 114 to 116 | N=C(Cc1ccccc1)Nc1ncccc1OCc1ccccc1
28 | 141 to 142 | CC(=O)Oc1cc2c(c3ccccc13)N(C(C)=O)c1ccccc1S2
29 | 144 to 148 | O=C(O)C1COc2ccc(Cl)c(Cl)c2O1 (stereo not given)
30 | 68 to 70 | COC(=O)C1CC(=O)N(c2cc(C(F)(F)F)cc(C(F)(F)F)c2)C1 (stereo not given)
31 | 81 to 82 | C=C(CC1(C)C(=O)CCC1=O)C1=CCCc2cc(OC)ccc21
32 | 204 to 205 | CCOCc1nc2c(N)nc3ccccc3c2n1CC1CC(C)=NO1 (stereo not given)
33 | 150 | CCOc1cc(CC)ccc1C1CCN(CCCCNC(=O)c2sc(-c3ccc(C(F)(F)F)cc3)nc2CO)CC1
34 | 194 to 198 | O=C1c2ccccc2C(=O)N1Cc1cc2cc(Cl)cc(Br)c2o1
35 | 109 | O=C1CC[C@H](COC(c2ccccc2)(c2ccccc2)c2ccccc2)N1CCCc1ccccc1
36 | 150 to 152 | Nc1ccccc1Nc1ccc(C(c2ccc(Nc3ccccc3N)cc2)(C(F)(F)F)C(F)(F)F)cc1
37 | 220 to 223 | CCn1nc(C)c2nc(C)nc(O)c21
38 | 160 to 162 | O=C(O)c1c[nH]c(SCc2ccccc2)c1SCc1ccccc1
39 | 145 to 146 | NC(=O)c1cc2c(cc1OCC1CCCCC1)OCCC[C@@H]2N
40 | 141 to 152 | CCS(=O)(=O)N[C@H](C(=O)NCc1ccc(OCc2ccccc2)c(OC)c1)C(C)C
41 | 151 to 152 | Cc1cc(-c2coc3ccc(-c4nnc(C)o4)cc23)ccn1
42 | 98 to 100 | O=C(CNC(=O)c1ccc([N+](=O)[O-])c(I)c1)OCc1ccccc1
43 | 176 to 179 | CCCNC(=O)NNC(=O)c1ccc(OC)cc1
44 | 296 to 300 | O=[N+]([O-])c1ccc2c(Nc3ccncc3)noc2c1
45 | 90 to 92 | CCC1=C(C(=O)Nc2ccc(Cl)c(C(=O)OC(C)C)c2)SCCO1
46 | 128 to 129 | CCCCCCc1c(C(F)(F)F)noc1NS(=O)(=O)c1ccccc1

Row | melting point [°C] | Compound
47 | 149 to 151 | O=C(C=Cc1ccc(O)cc1)NCCO
48 | 148 | N#CCCN1CCCCC1=Nc1ccccc1N1CCOCC1
49 | 170 to 172 | O=C1CC(O)CN1S(=O)(=O)c1ccc(N2CCCCCC2)cc1 (stereo not given)
50 | 120 to 123 | N#CC12CC(c3ccccc31)c1ccccc12
51 | 97 to 99 | COC(=O)c1cc(Cl)c(OCCn2ccnc2)s1
52 | 158 to 160 | N#Cc1cc(S(=O)(=O)c2ccc([N+](=O)[O-])cc2)cc(Br)n1
53 | 202 to 203 | COc1ccc(-c2c(C)ncc(C#N)c2Nc2ccc3[nH]ccc3c2C)cc1OC
54 | 78 to 80 | CC(=O)N1CCC(Oc2ccc(N(C)C)cc2)CC1
55 | 48 to 52 | Nc1cccc(Oc2ccc(C(=O)c3cccc(N)c3)cc2)c1
56 | 71 to 74 | CCCc1cc(Nc2ccn(-c3ccccc3)n2)cc(CCC)c1OC(C)=O
57 | 68 to 70 | COC(=O)C1=C(NCc2ccccc2)C(=O)O[C@@H]1C
58 | 184 to 186 | Cn1nccc1COc1nn2c(-c3ccccc3F)nnc2cc1C1CCC1
59 | 244 to 247 | CCCCCCNC1=NS(=O)(=O)c2ccc(Cl)cc2N1
60 | 204 to 206 | COCc1nc(N)nc(N)c1-c1ccc(Cl)c(Cl)c1
61 | 94 to 95 | O[C@H](c1ccc(F)cc1)[C@H](Cc1ccc(C(F)(F)F)cc1)NCc1cccc2ccccc12 (racemic)
62 | 194 to 196 | NC(=O)CC(CC(N)=O)c1cccc(Cl)c1Cl
63 | 123 to 124 | Fc1ccc(-c2ncncc2CCN2CCC(c3csc4cc(F)ccc34)CC2)cc1
64 | 209 to 210 | Clc1cc2c(cc1Cl)Nc1ccccc1C(NCc1cccnc1)=N2
65 | 116 to 119 | O=C1c2ccc(F)cc2CCc2cccnc21
66 | 229 to 231 | Cc1cc(O)ccc1-c1noc2cc(O)ccc12
67 | 110 | CCCN(CCCN1CCN(c2cccc(Cl)c2Cl)CC1)C1CCc2ncsc2C1 (stereo not given)
68 | 105 | CC(=O)c1ccc(Nc2ccccc2)cc1
69 | 169 to 171 | CC(C)(C)c1ccc(S(=O)(=O)n2c(CCC(=O)O)cc3cc(Cl)ccc32)cc1

Row | melting point [°C] | Compound
70 | 258 to 260 | O=C(c1cccs1)N1CCc2cc(S(=O)(=O)n3cc(-c4ccccc4)[nH]c3=O)ccc21
71 | 97 to 98 | O=C(N(Cc1cccnc1)c1ccc(F)cc1)C(F)(F)F
72 | 57 to 59 | COCC1CN(c2ccc(C3CCC(OCCC#N)CC3)cc2)C(=O)O1 (racemic)
73 | 63 to 66 | CCN(CC)c1ccc(N)cc1C#N
74 | 86 to 88 | COc1ccc(SCc2ccc(F)cc2F)c(Cl)c1Cl
75 | 117 to 118 | COc1cc(C(O)c2ccnc3ccccc23)ccc1OCc1ccccc1 (stereo not given)
76 | 171 to 172 | CCOC(=O)c1[nH]c2ccc(Cl)cc2c1-c1ccccc1
77 | 215 to 220 | CC(C)(C)N1C(=O)c2nc(Cl)cc(N)c2C1=O
78 | 209 to 210 | Cc1cc(Br)cn2cc(-c3ccc(C#N)cc3)nc12
79 | 130 to 132 | CCn1nc(OCCCc2ccc(OCCOC(C)C)cc2Oc2ncc(C(F)(F)F)cc2Cl)cc1CCC(=O)O
80 | 151 to 152 | CNC(=O)c1cccc(NC(=O)CCc2ccc(OC)cc2)c1
81 | 126 to 128 | Cc1c(CN2CCc3c(c4cccc(F)c4n3C)C2=O)ncn1C(=O)OCc1ccccc1
82 | 159 to 160 | COc1cc(OCCN2CCCC2)cc(-c2nc3cc(OC)cc(OC)c3c(=O)[nH]2)c1
83 | 142 to 144 | O=C(NCc1ccncc1)c1cccnc1Oc1cccnc1
84 | 176 to 177 | CCNc1nc(-c2ccc(F)cc2C)c2ccc(=O)n(-c3ccccc3F)c2n1
85 | 180 | CC(=O)c1c(Cl)n(C)c2ccccc12
86 | 375 to 377 | NC(=O)c1nc(-c2cccc(O)c2)nc2c1[nH]c(=O)n2-c1ccc(Cl)cc1Cl
87 | 58 to 62 | COc1cc(CN[C@@H](CC(C)C)C(=O)N2CCN(C(c3ccc(F)cc3)c3ccc(F)cc3)CC2)cc(OC)c1OC
88 | 119 to 120 | C=COCCN1C(=O)CN(c2ccccc2)C1=O
89 | 119 to 120 | Cc1nnc(SCC(=O)C23CC4CC(CC(C4)C2)C3)n1C(C)C
90 | 70 to 74 | O=C(OI(OC(=O)C(F)(F)F)C(F)(F)C(F)(F)C(F)(F)C(F)(F)C(F)(F)C(F)(F)C(F)(F)C(F)(F)F)C(F)(F)F
91 | 40 to 42 | O=[N+]([O-])c1ccc(Br)cc1O
92 | 123 to 124 | COC(=O)[C@@H]1C[C@@H](OS(C)(=O)=O)CN1C(=O)C1(C(F)(F)F)CC1

Row | Compound | melting point [°C]
93 | O=C(O)c1cccc(Cc2c[nH]cn2)c1O | 245 to 252
94 | CN1C(=O)[C@H](NC(=O)Nc2cccc(CC(=O)O)c2)N=C(c2ccccc2)c2ccccc21 | 167 to 170
95 | CN(C)Cc1nc(C=O)nn1-c1ccc(Cl)cc1C(=O)c1ccccc1 | 178 to 181
96 | CC(C)Cc1ccc(CCc2cc3c(s2)NC(=S)CN=C3c2ccccc2Cl)cc1 | 180 to 182
97 | OC1(c2ccc(-c3ccccc3)nc2)CN2CCC1CC2 (stereo not given) | 214
98 | CC(C)(O)C#Cc1ncn2c1[C@@H]1CCCN1C(=O)c1c(Cl)cccc1-2 | 234 to 235
99 | CC1(C)C2CC[C@@]1(N1CCCCC1)[C@H](O)C2 | 88.5 to 89.5
100 | CC1(C)CCc2c(Cl)cc(O)cc21 | 86.5 to 87.5
